The values below come from PMC9908617 (Biochimica et Biophysica Acta. General Subjects, 2023).

Where “and” joins values, the source holds several entries; their conditions need not be identical. Equal values may be shown once. Read-outs that look alike come from different tables or passages of the source.

Data set [1] has as its system C[S+](CC[C@H](N)C(=O)[O-])C[C@H]1O[C@@H](n2cnc3c(N)ncnc32)[C@H](O)[C@@H]1O. The experiment in a line: purified protein, by the assay type. The conditions noted are these: pH 7.5; 23.0 °C.
The target in data set [2] is HCoV-OC43 nsp10-nsp16 complex (Human coronavirus OC43, UniProt P0C6X6). The experiment in a line: biochemical.
HCoV-OC43 nsp10-nsp16 complex, sequence (P0C6X6 6797-7095 limits assumed): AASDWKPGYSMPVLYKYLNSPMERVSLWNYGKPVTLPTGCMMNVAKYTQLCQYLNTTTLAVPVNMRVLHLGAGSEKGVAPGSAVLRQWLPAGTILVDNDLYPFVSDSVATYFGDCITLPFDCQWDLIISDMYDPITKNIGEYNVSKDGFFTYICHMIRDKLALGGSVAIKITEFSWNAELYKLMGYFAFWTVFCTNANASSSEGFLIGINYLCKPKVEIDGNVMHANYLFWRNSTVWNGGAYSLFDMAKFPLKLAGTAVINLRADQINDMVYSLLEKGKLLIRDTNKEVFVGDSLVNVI
HCoV-OC43 nsp10-nsp16 complex, sequence (P0C6X6 4233-4369 partner limits assumed): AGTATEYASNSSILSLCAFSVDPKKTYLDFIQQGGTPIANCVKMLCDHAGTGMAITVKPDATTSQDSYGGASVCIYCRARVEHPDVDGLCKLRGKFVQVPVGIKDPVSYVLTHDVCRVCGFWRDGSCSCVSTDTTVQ
For data set [3], the target named is HCoV-NL63 nsp10-nsp16 complex (Human coronavirus NL63, UniProt P0C6X5). The experiment in a line: biochemical. It counts as biochemical.
HCoV-NL63 nsp10-nsp16 complex, sequence (P0C6X5 6430-6729 limits assumed): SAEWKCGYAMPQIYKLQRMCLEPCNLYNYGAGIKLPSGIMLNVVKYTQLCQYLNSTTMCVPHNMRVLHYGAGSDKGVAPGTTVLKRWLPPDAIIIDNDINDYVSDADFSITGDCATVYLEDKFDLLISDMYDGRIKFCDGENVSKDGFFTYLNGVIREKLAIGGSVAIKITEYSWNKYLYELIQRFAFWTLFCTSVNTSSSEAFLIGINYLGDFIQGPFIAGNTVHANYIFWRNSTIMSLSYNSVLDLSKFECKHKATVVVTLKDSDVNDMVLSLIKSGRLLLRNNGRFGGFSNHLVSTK
HCoV-NL63 nsp10-nsp16 complex, sequence (P0C6X5 3909-4043 partner limits assumed): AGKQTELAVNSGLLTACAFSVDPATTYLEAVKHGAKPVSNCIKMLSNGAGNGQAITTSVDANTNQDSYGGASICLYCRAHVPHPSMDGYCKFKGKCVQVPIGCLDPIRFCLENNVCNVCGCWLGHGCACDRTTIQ
The target in data set [4] is HCoV-HKU1 nsp10-nsp16 complex (Human coronavirus HKU1, UniProt P0C6X3). The experiment in a line: biochemical.
HCoV-HKU1 nsp10-nsp16 complex, sequence (P0C6X3 6854-7152 limits assumed): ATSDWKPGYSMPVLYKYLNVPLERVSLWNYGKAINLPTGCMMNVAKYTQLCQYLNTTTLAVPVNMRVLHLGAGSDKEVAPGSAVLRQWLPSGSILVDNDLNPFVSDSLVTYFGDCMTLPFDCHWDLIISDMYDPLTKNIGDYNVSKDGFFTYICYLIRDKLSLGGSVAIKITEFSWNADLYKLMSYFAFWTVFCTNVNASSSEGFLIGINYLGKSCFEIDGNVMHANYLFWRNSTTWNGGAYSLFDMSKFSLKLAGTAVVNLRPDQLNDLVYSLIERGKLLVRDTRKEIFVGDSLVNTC
HCoV-HKU1 nsp10-nsp16 complex, sequence (P0C6X3 4291-4427 partner limits assumed): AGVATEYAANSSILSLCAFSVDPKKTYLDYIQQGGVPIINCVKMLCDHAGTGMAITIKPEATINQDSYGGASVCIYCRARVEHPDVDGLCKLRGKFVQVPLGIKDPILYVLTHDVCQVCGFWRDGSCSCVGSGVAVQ
The target in data set [5] is SARS-CoV-2 nsp10-nsp16 complex (Severe acute respiratory syndrome coronavirus 2, UniProt P0DTD1). The experiment in a line: biochemical.
In data set [6] the target is HCoV-229E nsp10-nsp16 complex (Human coronavirus 229E, UniProt P0C6X1). The experiment in a line: biochemical.
HCoV-229E nsp10-nsp16 complex, sequence (P0C6X1 6459-6758 limits assumed): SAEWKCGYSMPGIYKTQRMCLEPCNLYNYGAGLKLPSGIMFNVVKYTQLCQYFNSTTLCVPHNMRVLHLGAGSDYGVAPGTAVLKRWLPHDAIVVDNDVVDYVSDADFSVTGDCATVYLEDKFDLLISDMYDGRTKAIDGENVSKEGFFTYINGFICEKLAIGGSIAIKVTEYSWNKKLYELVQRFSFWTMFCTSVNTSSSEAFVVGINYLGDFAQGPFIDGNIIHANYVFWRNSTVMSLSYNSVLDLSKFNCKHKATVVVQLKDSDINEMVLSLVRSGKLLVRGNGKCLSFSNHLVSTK
HCoV-229E nsp10-nsp16 complex, sequence (P0C6X1 3934-4068 partner limits assumed): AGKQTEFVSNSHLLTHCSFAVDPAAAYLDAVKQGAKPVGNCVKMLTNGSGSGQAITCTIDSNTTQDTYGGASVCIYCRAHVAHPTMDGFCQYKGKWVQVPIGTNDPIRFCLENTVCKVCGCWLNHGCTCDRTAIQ

In the case of “SARS-CoV-2 nsp10-nsp16 complex (Severe acute respiratory syndrome coronavirus 2)”, the Km (in general, the substrate concentration at which the rate is half of its maximum) in data set [1] was 5.0 ± 0.7 µM and 2.8 ± 0.4 µM.
For “HCoV-OC43 nsp10-nsp16 complex (Human coronavirus OC43)”, in data set [1], the Km was 7.1 ± 0.8 µM and 2.9 ± 0.4 µM.
With “SARS-CoV nsp10-nsp16 complex (Severe acute respiratory syndrome-related coronavirus)”, the Km in data set [1] was 5.7 ± 1.1 µM and 2.6 ± 0.4 µM.
“HCoV-229E nsp10-nsp16 complex (Human coronavirus 229E)”: the Km in data set [1] turned out to be 1.8 ± 0.2 µM.
Regarding `Nc1ncnc2c1ncn2[C@@H]1O[C@H](CSCC[C@H](N)C(=O)O)[C@@H](O)[C@H]1O` [SAH, S-adenosylhomocysteine], the IC50 (usually the concentration needed to halve the response being measured) in data set [2] is 1400 ± 300 nM; in data set [2] (IC50, HCoV-OC43, substrate RNA N7mGpppACCCCC 0.3 μM, 2 μM 3H-SAM), 4400 ± 1200 nM; in data set [3] (IC50, HCoV-NL63, substrate RNA N7mGpppACCCCC 0.3 μM, 2 μM 3H-SAM) it was 2400 ± 400 nM; in data set [4], 200 ± 50 nM; in data set [4] (IC50, HCoV-HKU1, substrate RNA N7mGpppACCCCC 0.3 μM, 2 μM 3H-SAM) it was 2100 ± 100 nM; in data set [5], 2900 nM and 500 nM. Also, the IC50 in data set [6] amounted to 900 ± 200 nM. In addition, the “fold lower IC50 with N7mGpppAUUAAA versus N7mGpppACCCCC” value in data set [3] (HCoV-NL63) is listed as 30 fold.
In the case of “HCoV-HKU1 nsp10-nsp16 complex (Human coronavirus HKU1 (isolate N2))”, the Km in data set [1] is 4.8 ± 1.2 µM and 2.3 ± 0.03 µM.
